Laboratory results reported in patent US11275071B2, “Sensor dyes for real-time sensing of metal ions in aqueous environments” (UWM Research Foundation, Inc., priority 2015, dated 2022).

Assays:
[1] = Protonation states of free PAN-7OH, pKA; type: physicochemical; conditions: free dye; site 1-OH (Metal Binding)
Protocol: The acid dissociation constants (pKA) and spectral profiles were determined for PAN-70H. PAN-7OH has three protonation sites: The heterocyclic nitrogen in the pyridyl moiety, and the two hydroxyl groups on the naphthalene ring. […] The latter group can potentially be used for covalent attachment of the sensor to a substrate.
The buffer reagents were treated with Chelex-100 to remove trace metal impurities. The samples were prepared containing 25 μM PAN-7OH in a 0.1 M pH buffer containing 2 mM Triton X-100 surfactant.
The data was analyzed using ReactLab Equilibria to determine the resulting pKA values. PAN-7OH has three protonation sites, so four species were used for the analysis model. The pKA values were assigned using values from well-known molecules with a similar structure. […] No error propagation calculations were performed here.

[2] = Metal response of PAN-7OH, absorbance at pH 7; type: binding; conditions: 25 μM PAN-7OH, 250 μM metal ion, pH 7 buffer, 2 mM Triton X-100
Protocol: (§1) Solutions were made containing 25 μM PAN-7OH and 250 μM metal ion (excess amount) in pH 7 buffer containing 2 mM Triton X-100.

[3] = Metal response of PAN-7OH, absorbance at pH 7; type: binding; conditions: 25 μM PAN-7OH, 250 μM metal ion, pH 7 buffer, 2 mM Triton X-100; remark: listed apart in the source
Protocol: as §1

[4] = Metal response of PAN-7OH, absorbance at pH 7; type: binding; conditions: 25 μM PAN-7OH, 250 μM metal ion, pH 7 buffer, 2 mM Triton X-100; remark: listed apart in the source
Protocol: as §1

[5] = Metal response of PAN-7OH, absorbance at pH 7; type: binding; conditions: 25 μM PAN-7OH, 250 μM metal ion, pH 7 buffer, 2 mM Triton X-100; remark: listed apart in the source
Protocol: as §1

[6] = Metal response of PAN-7OH, absorbance at pH 7; type: binding; conditions: 25 μM PAN-7OH, 250 μM metal ion, pH 7 buffer, 2 mM Triton X-100; remark: listed apart in the source
Protocol: as §1

[7] = Metal response of PAN-7OH, absorbance at pH 7; type: binding; conditions: 25 μM PAN-7OH, 250 μM metal ion, pH 7 buffer, 2 mM Triton X-100; remark: listed apart in the source
Protocol: as §1

[8] = Metal response of PAN-7OH, absorbance at pH 7; type: binding; conditions: 25 μM PAN-7OH, 250 μM metal ion, pH 7 buffer, 2 mM Triton X-100; remark: listed apart in the source
Protocol: as §1

[9] = Metal response of PAN-7OH, absorbance at pH 7; type: binding; conditions: 25 μM PAN-7OH, 250 μM metal ion, pH 7 buffer, 2 mM Triton X-100; remark: listed apart in the source
Protocol: as §1

[10] = Metal response of PAN-7OH, absorbance at pH 7; type: binding; conditions: 25 μM PAN-7OH, 250 μM metal ion, pH 7 buffer, 2 mM Triton X-100; remark: listed apart in the source
Protocol: as §1

[11] = Protonation states of Zn-(PAN-7OH) complexes
[12] = Metal response of PAN-7OH, absorbance at pH 7; type: binding; conditions: 25 μM PAN-7OH, 250 μM metal ion, pH 7 buffer, 2 mM Triton X-100; remark: listed apart in the source
Protocol: as §1

[13] = Metal response of PAN-7OH, absorbance at pH 7; type: binding; conditions: 25 μM PAN-7OH, 250 μM metal ion, pH 7 buffer, 2 mM Triton X-100; remark: listed apart in the source
Protocol: as §1

[14] = Metal response of PAN-7OH, absorbance at pH 7; type: binding; conditions: 25 μM PAN-7OH, 250 μM metal ion, pH 7 buffer, 2 mM Triton X-100; remark: listed apart in the source
Protocol: as §1

[15] = Metal response of PAN-7OH, absorbance at pH 7; type: binding; conditions: 25 μM PAN-7OH, 250 μM metal ion, pH 7 buffer, 2 mM Triton X-100; remark: listed apart in the source
Protocol: as §1

Compound: Oc1ccc2ccc(O)c(N=Nc3ccccn3)c2c1 [PAN-7OH]
- pKA [1]: 12.258
- absorbance change relative to the free dye [2]: did not exhibit an appreciable absorbance change
- absorbance change relative to the free dye [3]: red-shifted absorbance
- absorbance change relative to the free dye [4]: did not exhibit an appreciable absorbance change
- absorbance change relative to the free dye [5]: did not exhibit an appreciable absorbance change
- absorbance change relative to the free dye [6]: red-shifted absorbance
- absorbance change relative to the free dye [7]: red-shifted absorbance
- absorbance change relative to the free dye [8]: blue-shifted absorbance
- absorbance change relative to the free dye [9]: did not exhibit an appreciable absorbance change
- absorbance change relative to the free dye [10]: red-shifted absorbance
- pH at which the Zn-(PAN-7OH) complexes decomposed, strongly alkaline conditions [11]: > 12 pH
- pH at which the Zn-(PAN-7OH) complexes decomposed, weakly acidic conditions [11]: < 6 pH
- Acidic Dissociation ([11]; Zn(PAN-7OH)2H2 decomposition under acidic conditions, midpoint of species distribution curve): 5.272
- Alkaline Dissociation ([11]; Zn(PAN-7OH)2^2− decomposition, zinc hydroxide formation, strongly alkaline conditions, midpoint of curve): 13.164
- Complex pKA ([11]; non-binding hydroxyl group in the Zn-(PAN-7OH) complex, 20 μM PAN-7OH, 20 μM zinc): 10.449
- absorbance change relative to the free dye [12]: red-shifted absorbance
- absorbance change relative to the free dye ([12]; minor): red-shifted absorbance
- absorbance change relative to the free dye [13]: blue-shifted absorbance
- absorbance change relative to the free dye [14]: red-shifted absorbance
- absorbance change relative to the free dye [15]: did not exhibit an appreciable absorbance change
